Data on four compounds can be found in US9962427B2, “Treatment of right ventricular dysfunction due to pressure overload” (OTTAWA HOSPITAL RESEARCH INSTITUTE, priority 2016, dated 2018).

Each structure is given as a SMILES string.

In one series the test system is cardiomyocytes. The method, then:
FIG. 7B Quantitation of cell viability analysis as shown in (A). FIG. 7C Quantification of PI cell viability FACS analysis following a 24 hrs treatment of cardiomyocytes with H2O2 in the presence or absence of hCT1. Pre-treatment with PI3K inhibitor (LY294002, 50 μM) before H2O2 was also tested.
Cardiomyocytes were treated with control serum-free media or with H2O2 (300 μM, 1 hr) to induce cell death in the presence or absence of hCT1 (0.5 nM). After 24 hrs, cells were incubated with the cell viability marker Propidium Iodide (PI) (1 μg/mL) and analyzed by FACS (Ex: 535 nm, Em: 617 nm) for viable cells; i.e. cells inside the gated region of the side scatter (SS) versus PI plot (FIG. 7A). […] The PI3K pathway is a critical feature of physiological cardiac adaptive compensation and is a key protective feature distinguishing it from pathological adaptive compensation. Therefore, cardiomyocytes were pre-treated with a PI3K inhibitor (LY294002, 50 μM) before CT-1/H2O2 treatment.

For the next series, the system named is Mef2. As to the kind of experiment: Mef2 luciferase reporter in primary neonatal cardiomyocytes. Conditions: hCT1 0.5 nM, PE 100 μM, PAC-1 25 μM. It counts as cell-based. The method, then:
(§1) FIGS. 6A, 6B, and 6C. Stimulation with hCT1 causes sustained activation of NF-κB and Stat3 with limited activation of Mef2, as well as limited Nfat activation; the latter two indices are distinct expression patterns from pathologic hypertrophic stimulation. FIG. 6A Primary neonatal cardiomyocytes were transfected with luciferase reporter plasmids (NF-κB or Mef2), as indicators of hypertrophic activity. Luciferase activity was measured after treatments for 24 hrs with: hCT1 (0.5 nM), PE (100 μM), or procaspase 3 activating compound 1, PAC-1 (25 μM) (left). Treatments at early timepoints (30 min, 1 hr, and 3 hr) were also conducted for hCT1 (right). FIG. 6B Primary neonatal cardiomyocytes were transfected with a luciferase reporter plasmid for Stat3. Luciferase activity was measured after treatments for 24 hrs with: hCT1 (0.5 nM), PE (100 μM), or procaspase 3 activating compound 1, PAC-1 (25 μM) (left) and at earlier time points (right). FIG. 6C Primary neonatal cardiomyocytes were infected with a luciferase-based Nfat reporter Adenovirus (Nfat-AdV). Luciferase activity was measured after treatments for 24 hrs with: hCT1 (0.5 nM), PE (100 μM), or procaspase 3 activating compound 1, PAC-1 (25 μM) (left) and at earlier time points (right)
The signaling pathways that CT-1 engages in mediating physiologic adaptive compensatory remodeling were examined. The applicants predicted that cardiomyocyte adaptive remodeling mediated by CT-1 results (in part) from the induction of a specific transcriptional program, which is distinct from that of pathologic hypertrophic response. To address this hypothesis, the applicants tested the activity of two well-known transcription factor families that have been linked to both physiologic and pathologic cardiomyocyte growth, the Mef2 (Kolodziejczyk et al. 1999 Curr Biol. 9, 1203-1206; Kim et al. 2008, J Clin Invest. 118, 124-132.) and the NF-κB family (Gordon et al. 2011, Circ Res. 108, 1122-1132). Primary neonatal cardiomyocytes were transfected with luciferase reporter plasmids (NF-κB and Mef2) to be used as a read out of transcriptional activity. Luciferase activity was determined after treatments for 24 hrs with: hCT1 (0.5 nM), PE (100 μM), or procaspase 3 activating compound 1, PAC-1 (25 μM). […] This pattern of transcription factor activation was distinct from that induced by PE and by the caspase 3 specific activating compound PAC-1.
(In a reporter assay the amount or activity of a reporter protein is the signal.)

For the next series, the system named is STAT3. As to the kind of experiment: STAT3 luciferase reporter in cardiomyocytes. It counts as cell-based. Particulars: 30 minutes up to 24 hours; hCT1 0.5 nM, PE 100 μM, PAC-1 25 μM. The method, then: as §1
Moreover, it is reasonable to assume that CT-1 may moderate the activity of additional transcription factors, which further contribute to the adaptive compensation phenotype. As such, Applicants decided to test the hypothesis that STAT3 (Signal transducer and activator of transcription 3) dependent transcriptional activity is a specific determinant for CT-1 induced physiologic adaptive compensation. STAT3 phosphorylation and transcriptional activation is a response that is common to the Interleukin-6 cytokine family (of which CT-1 is a member), which is mediated through binding and activation of a JAK/gp130 (Janus kinase/[…]) receptor complex.

A further series has as its system NFAT. The series can be described thus: NFAT luciferase reporter adenovirus (Nfat-AdV) in cardiomyocytes. Conditions: as early as 3 hours, up to 24 hours; PE 100 μM, PAC-1 25 μM. It counts as cell-based. As to the method:
as §1
Applicants tested this supposition by infecting cardiomyocytes with an NFAT luciferase reporter linked to an Adenovirus (AdV) backbone (FIG. 6C). Cardiomyocytes were infected at a […] (MOI) of 20 with Nfat-AdV for 24 hours prior to stimulation with hCT1 (0.5 nM), PE (100 μM), or procaspase 3 activating compound 1, PAC-1 (25 μM). As an initial positive control, co-infection of NFAT-AdV with activated Calcineurin-AdV (a phosphatase and potent activator of NFAT signalling) caused a significant increase in NFAT activity (n=4; *, P<0.05). […] Although the exact mechanism of inhibition is unknown, Applicant has shown CT-1 engaging a PI3K signalling pathway and it would be reasonable to postulate that phosphorylation of NFAT by CT-1/PI3K signalling would limit NFAT activity.

The subject of series [1] is Vascular Endothelial Growth Factor—VEGF. As to the kind of experiment: VEGF expression by immunofluorescence in primary cardiomyocytes. Particulars: 24 hours; hCT1 0.5 nM, PE 100 μM, PAC-1 25 μM. Format: cell-based. The method, then: FIGS. 8A and 8B. […] FIG. 8B Microarray analysis of primary cardiomyocytes stimulated with hCT1 (0.5 nM) for 24 hours.
Applicant explored the role of CT-1 as a pro-angiogenic factor in the adaptive hypertrophic response. Physiologic cardiac adaptive compensation is associated with an increase in capillary density, whereas pathologic response is characterized by a decline or no change at all. Importantly, the compensatory vascular growth/angiogenesis that occurs during physiologic adaptive compensation is permissive for the increased workload that accompanies physiologic adaptive compensation. Despite this adaptation, little information exists regarding the mechanisms that match the demand for angiogenesis to the beneficial form of myocardial growth. The rapid in vitro and in vivo adaptive compensation in response to CT-1 supports a hypothesis that the cardiomyocyte itself may act in a paracrine fashion, to signal and promote angiogenesis. To address this conjecture, Applicant examined whether CT-1 treated primary cardiomyocytes produced vascular endothelial growth factor (VEGF), an angiogenic factor known to be produced and secreted by cardiomyocytes. Primary cardiomyocytes were incubated with control serum-free media (Ctrl, SF media) or stimulated with hCT1 (0.5 nM), PE (100 μM), or PAC-1 (25 μM) for 24 hours. Immunofluorescence was used to detect α-actinin, Vascular Endothelial Growth Factor—VEGF, and nuclei. […] Based on these observations Applicant next conducted a comparative gene expression analysis of control (non-stimulated) versus CT-1 treated (0.5 nM, 24 hours) primary cardiomyocytes, using the Affymetrix Rat gene 2.0ST array.

A further series concerns rats. As to the kind of experiment: M-mode ECHO after 2 weeks of osmotic minipump delivery in rats. It counts as in vivo, rat. Conditions: ISO 1 mg/kg/day. As to the method: FIGS. 3A, 3B, and 3C. […] Arrows (in upper panels) point to myocardial wall (RVLW). Dotted lines (in lower panels) show inner ventricle chambers.
CT-1 was tested in vivo to determine whether its administration would induce a myocardial adaptive remodeling characteristic of physiologic compensation (FIGS. 3A, 3B, and 3C). Osmotic minipumps containing PBS control (Ctrl) or hCT1 (6 μg/kg/hr) or Isoproterenol (ISO, 1 mg/kg/day) were implanted subcutaneously in rats. ISO is a beta-adrenergic receptor agonist and continuous infusion with ISO in rats is known to induce pathological cardiac hypertrophy and cardiomyocyte damage (in both the right and left ventricles) which progresses to heart failure (Morisco et al (2001) J Mol Cell Cardiol 33:561-573 and Grimm et al (1998) Cardiovascular Research 37:91-100). After 2 weeks of treatment, M-mode ECHO analysis was used to assess myocardial structure/function (FIG. 3A). In this model, an increased right ventricle lateral wall (RVLW) thickness indicates the presence of myocardiocytes growth, and an increased ratio of the right to left ventricle internal diameters (RVID/LVID) is an indicator of pathologic hypertrophy. An increased RVLW thickness but constant or reduced RVID:LVID ratio is an indicator of adaptive compensatory RV remodeling. Both hCT1 and ISO induced a significant increase in RVLW thickness (12% and 32% fold increase, respectively) compared to control rats (n=3; * and **, P<0.05). […] An in vivo growth reversal analysis was also conducted. Following a 2 week delivery of CT-1 protein (6 μg/kg/hr) or PE (10 mg/kg/day) as the pathologic control in this case, animals were then assessed for cardiac structure/function at a 6 week follow-on period. […] Collectively, these studies support the contention that CT-1 elicits a reversible physiologic cardiac adaptive compensation.

`O=c1cc(N2CCOCC2)oc2c(-c3ccccc3)cccc12` [LY294002]: the “decrease in viability compared to cells treated only with hCT1/H2O2” value in the series with cardiomyocytes (pre-treatment with LY294002 50 μM before CT-1/H2O2 (FIG. 7C)) was 46%.

Regarding `C=CCc1cccc(/C=N/NC(=O)CN2CCN(Cc3ccccc3)CC2)c1O` [PAC-1, procaspase 3 activating compound 1, reference compound], the “Mef2 activation after 24 hrs” value in the series with Mef2 was “significant activation of Mef2”. Further, the STAT3 activation entry in the series with STAT3 is reported as “only minimal (if any) activation”. In the series with NFAT, the “NFAT activity compared to baseline levels” value is given as “significant increase of NFAT activity”. In addition, the “VEGF expression (immunofluorescence)” value in series [1] is “less VEGF expression”.

As for `OO` [H2O2, hydrogen peroxide], the “cardiomyocyte viability decreased vs. control” value in the series on cardiomyocytes (1 h, 300 μM) is given as 24%. Also, the “decrease in viability vs. control” value with cardiomyocytes (24 h) was 70%.

As for `CC(C)NCC(O)c1ccc(O)c(O)c1` (stereo not drawn) [ISO, Isoproterenol, reference compound], the “increase in the RVID/LVID ratio” value in the series on rats is 24%. Also, in the series on rats (hCT1 6 μg/kg/hr, subcutaneous minipump), the “increase in RVLW thickness compared to control rats” value is reported as 32 % fold increase.
